Compound in assay [1]: O=c1[nH]cc(F)c(=O)[nH]1 [FLUOROURACIL]
As to the kind of experiment: surviving fraction relative to DMSO-only wells; higher = less growth inhibition. The note with it: exposure time: 5 days. An outline of the steps: (§1)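 Five days of continuous inhibitor exposure, at 0.5, 1, 5, 10, 50, 100, 500 and 1000 nM, followed a 24-hour period after log-phase tumour cell lines were seeded at 250–500 cells per well in 384-well plates. Surviving fraction was derived from CellTiter-Glo luminescence relative to the median of DMSO-only wells. Plates were read after 10 minutes at room temperature, and lines screened three times were kept only if replicate Pearson r >0.7 and median Z' >0.3.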

Compound in assay [2]: CC[C@@H](C(=O)[C@@H](C)[C@@H](O)[C@H](C)[C@@H]1O[C@@H]([C@@H](CC)C(=O)O)CC[C@@H]1C)[C@H]1O[C@]2(C=C[C@@H](O)[C@]3(CC[C@@](C)([C@H]4CC[C@](O)(CC)[C@H](C)O4)O3)O2)[C@H](C)C[C@@H]1C [SALINOMYCIN]
Described as above. Particulars: exposure time: 5 days. An outline of the steps: as §1

± gives the standard deviation of the averaged measurements.

As to SUM159 BREAST, the surviving fraction in assay [1] (0.5 nM) worked out at 1.1 ± 0.024; in assay [1] (1 nM) it was 1.07 ± 0.023; in assay [1] (5 nM), 1.08 ± 0.027; in assay [1] (10 nM), 1.06 ± 0.026; in assay [1] (50 nM) it was 1.073 ± 0.0051; in assay [1] (100 nM), 1.01 ± 0.012. Also, the surviving fraction turned out to be 1.03 ± 0.014 in assay [1] (500 nM); 0.915 ± 0.01 in assay [1] (1000 nM); 0.979 ± 0.033 in assay [2] (0.5 nM); 0.92 ± 0.13 in assay [2] (1 nM); 0.865 ± 0.25 in assay [2] (5 nM); 0.934 ± 0.12 in assay [2] (10 nM). Further, the surviving fraction in assay [2] (50 nM) is 0.648 ± 0.14; in assay [2] (100 nM), 0.475 ± 0.18; in assay [2] (500 nM), 0.32 ± 0.088; in assay [2] (1000 nM) it was 0.268 ± 0.092.

SYO1 SYNOVIAL: the surviving fraction in assay [1] (0.5 nM) stood at 1.02 ± 0.012; in assay [1] (1 nM), 0.989 ± 0.01; in assay [1] (5 nM) it was 0.962 ± 0.029; in assay [1] (10 nM), 0.974 ± 0.024; in assay [1] (50 nM), 0.894 ± 0.016; in assay [1] (100 nM), 0.872 ± 0.034. The surviving fraction in assay [1] (500 nM) was 0.763 ± 0.034; in assay [1] (1000 nM), 0.616 ± 0.025; in assay [2] (0.5 nM), 0.905 ± 0.038; in assay [2] (1 nM), 0.832 ± 0.089; in assay [2] (5 nM) it was 0.876 ± 0.056; in assay [2] (10 nM) it was 0.475 ± 0.14. The surviving fraction in assay [2] (50 nM) worked out at 0.949 ± 0.04; in assay [2] (100 nM), 0.804 ± 0.1; in assay [2] (500 nM), 0.293 ± 0.02; in assay [2] (1000 nM), 0.117 ± 0.028.

In the case of T47D BREAST, the surviving fraction in assay [1] (0.5 nM) is 1.02 ± 0.03; in assay [1] (1 nM), 1.03 ± 0.03; in assay [1] (5 nM), 1 ± 0.0033; in assay [1] (10 nM), 1.01 ± 0.03; in assay [1] (50 nM), 1.02 ± 0.041; in assay [1] (100 nM), 0.95 ± 0.04. Further, the surviving fraction is 0.855 ± 0.02 in assay [1] (500 nM); 0.761 ± 0.028 in assay [1] (1000 nM); 1 ± 0.034 in assay [2] (0.5 nM); 1.017 ± 0.0096 in assay [2] (1 nM); 0.983 ± 0.04 in assay [2] (5 nM); 0.898 ± 0.047 in assay [2] (10 nM). Besides, the surviving fraction in assay [2] (50 nM) turned out to be 1.07 ± 0.015; in assay [2] (100 nM), 1.07 ± 0.046; in assay [2] (500 nM), 0.891 ± 0.041; in assay [2] (1000 nM) it was 0.631 ± 0.018.

Take U2OS BONE: the surviving fraction stood at 1.02 ± 0.021 in assay [1] (0.5 nM); 1.04 ± 0.025 in assay [1] (1 nM); 1.083 ± 0.0072 in assay [1] (5 nM); 1.05 ± 0.05 in assay [1] (10 nM); 1.01 ± 0.011 in assay [1] (50 nM); 0.966 ± 0.083 in assay [1] (100 nM). For the same test system, the surviving fraction in assay [1] (500 nM) worked out at 0.843 ± 0.051; in assay [1] (1000 nM), 0.674 ± 0.043; in assay [2] (0.5 nM) it was 1.01 ± 0.022; in assay [2] (1 nM), 1.02 ± 0.04; in assay [2] (5 nM), 1.01 ± 0.016; in assay [2] (10 nM), 1.015 ± 0.0081. The surviving fraction turned out to be 1.06 ± 0.019 in assay [2] (50 nM), 1.04 ± 0.029 in assay [2] (100 nM), 0.783 ± 0.024 in assay [2] (500 nM) and 0.538 ± 0.035 in assay [2] (1000 nM).

For the test system VCAP PROSTATE, the surviving fraction in assay [1] (0.5 nM) came out at 1.03 ± 0.11; in assay [1] (1 nM), 1.06 ± 0.026; in assay [1] (5 nM) it was 1.09 ± 0.044; in assay [1] (10 nM) it was 1.22 ± 0.097; in assay [1] (50 nM), 1.05 ± 0.077; in assay [1] (100 nM), 0.998 ± 0.22. In addition, the surviving fraction in assay [1] (500 nM) was found to be 0.916 ± 0.17; in assay [1] (1000 nM), 0.939 ± 0.049; in assay [2] (0.5 nM), 1.07 ± 0.18; in assay [2] (1 nM) it was 1.04 ± 0.12; in assay [2] (5 nM), 1.09 ± 0.074; in assay [2] (10 nM) it was 1.14 ± 0.053. In addition, the surviving fraction in assay [2] (50 nM) was determined as 1.08 ± 0.13; in assay [2] (100 nM), 1.04 ± 0.023; in assay [2] (500 nM), 0.245 ± 0.044; in assay [2] (1000 nM), 0.144 ± 0.0072.

For the test system VP229 BREAST, the surviving fraction in assay [1] (0.5 nM) came out at 1.08 ± 0.036; in assay [1] (1 nM), 0.988 ± 0.05; in assay [1] (5 nM), 1.1 ± 0.13; in assay [1] (10 nM), 0.92 ± 0.16; in assay [1] (50 nM), 0.905 ± 0.068; in assay [1] (100 nM), 0.827 ± 0.062. Also, the surviving fraction is 0.773 ± 0.095 in assay [1] (500 nM); 0.654 ± 0.18 in assay [1] (1000 nM); 0.949 ± 0.074 in assay [2] (0.5 nM); 0.907 ± 0.022 in assay [2] (1 nM); 1.04 ± 0.15 in assay [2] (5 nM); 0.891 ± 0.12 in assay [2] (10 nM). The surviving fraction came out at 0.831 ± 0.14 in assay [2] (50 nM), 0.52 ± 0.021 in assay [2] (100 nM), 0.139 ± 0.017 in assay [2] (500 nM) and 0.133 ± 0.015 in assay [2] (1000 nM).

With YAMATO SYNOVIAL, the surviving fraction in assay [1] (0.5 nM) stood at 1.2 ± 0.08; in assay [1] (1 nM), 1.15 ± 0.056; in assay [1] (5 nM) it was 1.3 ± 0.021; in assay [1] (50 nM) it was 0.921 ± 0.061; in assay [1] (100 nM), 0.829 ± 0.046; in assay [1] (500 nM), 0.791 ± 0.053. Moreover, the surviving fraction in assay [1] (1000 nM) came out at 0.654 ± 0.028; in assay [2] (0.5 nM), 1.11 ± 0.044; in assay [2] (1 nM), 0.733 ± 0.042; in assay [2] (5 nM), 0.984 ± 0.046; in assay [2] (10 nM) it was 0.216 ± 0.0092; in assay [2] (50 nM), 1.05 ± 0.08. In addition, the surviving fraction in assay [2] (100 nM) came to 0.655 ± 0.029; in assay [2] (500 nM), 0.359 ± 0.013; in assay [2] (1000 nM), 0.133 ± 0.013.

With ZR751 BREAST, the surviving fraction in assay [1] (0.5 nM) is 1.21 ± 0.13; in assay [1] (1 nM), 1.26 ± 0.11; in assay [1] (5 nM), 0.966 ± 0.051; in assay [1] (10 nM) it was 1.12 ± 0.18; in assay [1] (50 nM) it was 1.04 ± 0.12; in assay [1] (100 nM) it was 1.1 ± 0.16. Also, the surviving fraction was 0.974 ± 0.072 in assay [1] (500 nM); 0.81 ± 0.083 in assay [1] (1000 nM); 1.05 ± 0.086 in assay [2] (0.5 nM); 1.01 ± 0.11 in assay [2] (1 nM); 0.992 ± 0.14 in assay [2] (5 nM); 1.03 ± 0.092 in assay [2] (10 nM). The surviving fraction in assay [2] (50 nM) was found to be 1.17 ± 0.15; in assay [2] (100 nM) it was 0.787 ± 0.089; in assay [2] (500 nM), 0.408 ± 0.055; in assay [2] (1000 nM), 0.289 ± 0.024.
